How the values were obtained:
[1] = cited from earlier work; for pKa (pKa1, first stage dissociation constant): 25° C.
[2] = system: Escherichia coli (E-coli) cell; test: Bacteriolytic power (number of bacterial cells after 3 days vs blank); type: cell-based; settings: 50 μl of agent diluted to 50% as surfactant in 0.5 ml E. coli cell solution, 20° C.
Description: Into a 2 ml-screw tube were added 0.5 ml of a solution of an Escherichia coli (E-coli) cell and 50 μl of a bacteriolytic agent aqueous diluted solution which had been diluted so as to be a concentration of 50% as a surfactant with a micropipette, and the mixture was mixed well. The mixture was stored by allowing to stand at 20° C. for 3 days, which was used as a sample, and the number of bacterium cells was measured with a super deep profile measurement microscope (manufactured by KEYENCE CORPORATION, VK-8500). Bacteriolytic power was calculated by a following equation.
As a blank, 50 μl of ion-exchanged water was used in place of a bacteriolytic agent aqueous diluted solution. Bacteriolytic power (%)=[1−(the number of bacterial cells in sample after 3 days/the number of bacterial cells of blank)]×100 Determination Criteria: […]

Compound	pKa (pKa1, first stage dissociation constant) [1]	Bacteriolytic power (score) [2]	further results
O=C(O)CCCCCCCC(=O)O [azelaic acid]	4.6		
CCCCCCCCCC[N+](C)(C)CCCCCCCCCC.[Cl-] [compound 3, didecyldimethylammonium chloride, reference compound]		4 (60% ≦ Bacteriolytic power < 80%)	
CCOP(=O)(O)O [ethylphosphoric acid]	1.6		
O=C(O)c1cc(C(=O)O)c(C(=O)O)cc1C(=O)O [pyromellitic acid]	1.9		
O=C(O)[C@H](O)[C@@H](O)[C@H](O)[C@H](O)CO [gluconic acid]	2.2		
CCCCCC(=O)O [caproic acid]	4.9		
O=C(O)CCCC(=O)O [glutaric acid]	4.3		
cyclopentane tetracarboxylic acid salt of didecyldimethylammonium [Example 1]		5 (Bacteriolytic power ≧ 80%)	
COP(=O)(O)O [methylphosphoric acid]	1.5		
adipate salt of didecyldimethylammonium [Example 3]		5 (Bacteriolytic power ≧ 80%)	
citric acid salt of didecyldimethylammonium [Example 2]		5 (Bacteriolytic power ≧ 80%)	
N[C@@H](CCC(=O)O)C(=O)O [glutamic acid]	2.3		
cyclopentanetetracarboxylic acid salt of distearyldimethylammonium [Example 5]		4 (60% ≦ Bacteriolytic power < 80%)	
O=C(O)CCCCC(=O)O [adipic acid]			pKa2 ([1]; second stage dissociation): 5.3
CC(=O)[O-].CCCCCCCCCC[N+](C)(C)CCCCCCCCCC [Example 4, acetate salt of didecyldimethylammonium]		5 (Bacteriolytic power ≧ 80%)	
